In patent US6951856B2, “Arylethene-sulfonamides” (Actelion Pharmaceuticals Ltd., priority 2000, dated 2005):
pIC50: −log10 of the molar value. Where two headings read alike, the source gives them in different places.

Legend:
[1] = molecular target: T1, human recombinant ETA receptors (Homo sapiens, UniProt P25101); assay: Inhibition of [125I]ET-1 binding to membranes from CHO cells carrying human ETA receptors; conditions: CHO cell membranes, 8 pM [125I]ET-1, 2 h at 20° C.
T1 construct: expressed in transfected cells; host or cells: CHO cells (microsomal membranes)
T1 sequence (P25101 21-427): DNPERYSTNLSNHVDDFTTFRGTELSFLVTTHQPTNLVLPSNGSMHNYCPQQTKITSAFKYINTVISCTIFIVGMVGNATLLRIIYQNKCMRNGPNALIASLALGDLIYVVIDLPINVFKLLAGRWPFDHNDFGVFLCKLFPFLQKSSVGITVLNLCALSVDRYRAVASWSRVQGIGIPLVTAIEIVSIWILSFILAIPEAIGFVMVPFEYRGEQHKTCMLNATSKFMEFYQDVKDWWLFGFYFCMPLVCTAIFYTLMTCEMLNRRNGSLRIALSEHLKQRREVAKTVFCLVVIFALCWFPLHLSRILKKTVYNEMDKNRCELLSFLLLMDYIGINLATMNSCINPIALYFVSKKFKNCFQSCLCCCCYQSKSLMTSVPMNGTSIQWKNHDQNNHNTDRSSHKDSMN
Protocol: (§1) 1) Inhibition of Endothelin Binding to Membranes from CHO Cells Carrying Human ET Receptors
(§2) For competition binding studies, membranes of CHO cells expressing human recombinant ETA or ETB receptors were used. Microsomal membranes from recombinant CHO cells were prepared and the binding assay made as previously described (Breu V., et al, FEBS Lett 1993; 334:210).
(§3) The assay was performed in 200 uL 50 mM Tris/HCl buffer, pH 7.4, including 25 mM MnCl2, 1 mM EDTA and 0.5% (w/v) BSA in polypropylene microtiter plates. […] After 2 h, the membranes were filtered on filterplates containing GF/C filters (Unifilterplates from Canberra Packard S.A. Zürich, Switzerland). To each well, 50 uL of scintillation cocktail was added (MicroScint 20, Canberra Packard S.A. Zürich, Switzerland) and the filter plates counted in a microplate counter (TopCount, Canberra Packard S.A. Zürich, Switzerland).
(§4) All the test compounds were dissolved, diluted and added in DMSO.

[2] = molecular target: T2, human recombinant ETB receptors (Homo sapiens, UniProt P24530); assay: Inhibition of [125I]ET-1 binding to membranes from CHO cells carrying human ETB receptors
T2 construct: expressed in transfected cells; host or cells: CHO cells (microsomal membranes)
T2 sequence (P24530 27-442): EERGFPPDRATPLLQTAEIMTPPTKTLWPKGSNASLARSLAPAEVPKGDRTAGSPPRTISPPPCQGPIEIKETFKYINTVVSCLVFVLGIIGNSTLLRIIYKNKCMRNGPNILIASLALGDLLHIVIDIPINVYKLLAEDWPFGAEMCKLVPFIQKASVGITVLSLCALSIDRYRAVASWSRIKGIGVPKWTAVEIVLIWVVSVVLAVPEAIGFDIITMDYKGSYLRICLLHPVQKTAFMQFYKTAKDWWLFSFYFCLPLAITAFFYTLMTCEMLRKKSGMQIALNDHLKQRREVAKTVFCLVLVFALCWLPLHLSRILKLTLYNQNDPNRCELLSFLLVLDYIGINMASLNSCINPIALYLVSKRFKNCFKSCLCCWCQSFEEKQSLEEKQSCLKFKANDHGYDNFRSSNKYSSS
Protocol: as §1, §2, §3, §4

Structure (SMILES)	pIC50 [1]	pIC50 [2]	pIC50 ([2]; CHO cell membranes, 8 pM [125I]ET-1, 2 h at 20° C.)
COc1ccc(-c2c(NS(=O)(=O)/C=C/c3ccccc3)ncnc2OCCOc2ncc(Cl)cn2)cc1 [Example 120]	7.41	5.79	–
COc1ccc(-c2c(NS(=O)(=O)/C=C/c3ccccc3)ncnc2OCCOc2ccc(Br)cn2)cc1 [Example 124]	7.48	6.51	–
Cc1ccc(-c2c(NS(=O)(=O)/C=C/c3ccccc3)nc(-c3cnccn3)nc2OCCOc2ncc(Br)cn2)cc1 [Example 125]	8.17	5.57	–
COc1cnc(OCCOc2nc(-c3cnccn3)nc(NS(=O)(=O)/C=C/c3ccccc3)c2-c2ccc(C)cc2)nc1 [Example 126]	8.05	5.44	–
Cc1ccc(-c2c(NS(=O)(=O)/C=C/c3ccccc3)nc(N3CCOCC3)nc2OCCOc2ncc(Br)cn2)cc1 [Example 127]	7.85	5.56	–
Cc1ccc(-c2c(NS(=O)(=O)/C=C/c3ccccc3)nc(C3CC3)nc2OCCOc2ncc(Br)cn2)cc1 [Example 132]	8.24	5.78	–
COc1cnc(OCCOc2nc(C3CC3)nc(NS(=O)(=O)/C=C/c3ccccc3)c2-c2ccc(C)cc2)nc1 [Example 133]	8.09	5.75	–
Cc1ccc(-c2c(NS(=O)(=O)/C=C/c3ccccc3)nc(C3CC3)nc2OCCOc2ncc(Cl)cn2)cc1 [Example 134]	8.20	5.31	–
Cc1ccc(-c2c(NS(=O)(=O)/C=C/c3ccccc3)nc(C)nc2OCCOc2ncc(Br)cn2)cc1 [Example 138]	8.36	5.87	–
COc1cnc(OCCOc2nc(C)nc(NS(=O)(=O)/C=C/c3ccccc3)c2-c2ccc(C)cc2)nc1 [Example 139]	8.01	5.77	–
COc1cnc(OCCOc2nc(-c3ncccn3)nc(NS(=O)(=O)/C=C/c3ccccc3)c2-c2ccc(C)cc2)nc1 [Example 144]	8.00	5.51	–
Cc1ccc(-c2c(NS(=O)(=O)/C=C/c3cccs3)nc(-c3ncccn3)nc2OCCOc2ncc(Br)cn2)cc1 [Example 145]	8.04	–	5.62
COc1ccccc1Oc1c(NS(=O)(=O)/C=C/c2cccs2)nc(-c2ncccn2)nc1OCCOc1ncc(Br)cn1 [Example 157]	7.66	5.35	–
COc1ccccc1Oc1c(NS(=O)(=O)/C=C/c2cccs2)nc(-c2ncccn2)nc1OCCOc1ncccn1 [Example 158]	7.92	5.90	–
COc1ccccc1Oc1c(NS(=O)(=O)/C=C/c2ccccc2)nc(-c2ccncc2)nc1OCCOc1ncc(Br)cn1 [Example 159]	8.14	5.64	–
COc1cnc(OCCOc2nc(-c3ccncc3)nc(NS(=O)(=O)/C=C/c3ccccc3)c2Oc2ccccc2OC)nc1 [Example 160]	7.89	6.12	–
COc1ccccc1Oc1c(NS(=O)(=O)/C=C/c2ccccc2)nc(-c2ccncc2)nc1OCCOc1ncc(Cl)cn1 [Example 164]	8.00	5.81	–
COc1ccccc1Oc1c(NS(=O)(=O)/C(C)=C/c2ccccc2)nc(-c2ccncc2)nc1OCCOc1ncc(Br)cn1 [Example 175]	8.33	6.30	–
COc1ccccc1Oc1c(NS(=O)(=O)/C(C)=C/c2ccccc2)nc(-c2ccncc2)nc1OCCOc1ncc(Cl)cn1 [Example 176]	8.39	5.97	–

Structure (SMILES)	pIC50 [1]	pIC50 [2]	pIC50 ([2]; CHO cell membranes, 8 pM [125I]ET-1, 2 h at 20° C.)
COc1cnc(OCCOc2nc(-c3ccncc3)nc(NS(=O)(=O)/C(C)=C/c3ccccc3)c2Oc2ccccc2OC)nc1 [Example 177]	8.26	6.44	–
COc1ccccc1Oc1c(NS(=O)(=O)/C=C/c2ccsc2)nc(-c2ccncc2)nc1OCCOc1ncc(Br)cn1 [Example 178]	8.30	6.17	–
COc1cnc(OCCOc2nc(-c3ccncc3)nc(NS(=O)(=O)/C=C/c3ccsc3)c2Oc2ccccc2OC)nc1 [Example 179]	8.05	6.16	–
COc1ccccc1Oc1c(NS(=O)(=O)/C=C/c2ccsc2)nc(-c2ccncc2)nc1OCCOc1ncccn1 [Example 180]	8.13	5.99	–
COc1ccccc1Oc1c(NS(=O)(=O)/C=C/c2ccsc2)nc(-c2ccncc2)nc1OCCOc1ncc(Cl)cn1 [Example 181]	8.15	5.70	–
COc1ccccc1Oc1c(NS(=O)(=O)/C=C/c2ccccc2)nc(-c2cnccn2)nc1OCCOc1ncc(Br)cn1 [Example 182]	7.78	5.85	–
COc1cnc(OCCOc2nc(N3CCOCC3)nc(NS(=O)(=O)/C=C/c3ccccc3)c2Oc2ccccc2OC)nc1 [Example 197]	8.30	6.66	–
COc1ccccc1Oc1c(NS(=O)(=O)/C=C/c2ccccc2)nc(N2CCOCC2)nc1OCCOc1ncc(C(F)(F)F)cn1 [Example 198]	8.10	6.23	–
COc1ccccc1Oc1c(NS(=O)(=O)/C(C)=C/c2ccccc2)nc(N2CCOCC2)nc1OCCOc1ncc(Br)cn1 [Example 202]	8.62	6.46	–
COc1cnc(OCCOc2nc(N3CCOCC3)nc(NS(=O)(=O)/C(C)=C/c3ccccc3)c2Oc2ccccc2OC)nc1 [Example 203]	8.47	6.60	–
COc1ccccc1Oc1c(NS(=O)(=O)/C=C/c2ccccc2)nc(N2CCOCC2)nc1OCCOc1ncc(SC)cn1 [Example 204]	8.48	6.86	–
COc1ccccc1Oc1c(NS(=O)(=O)/C=C/c2cccs2)ncnc1OCCOc1ncc(Br)cn1 [Example 214]	7.41	5.40	–
COc1ccccc1Oc1c(NS(=O)(=O)/C=C/c2ccccc2)ncnc1OCCOc1ncc(SC)cn1 [Example 222]	7.39	6.30	–
COc1ccc(Cl)c(Oc2c(NS(=O)(=O)/C=C/c3ccccc3)ncnc2OCCOc2ncc(Br)cn2)c1 [Example 225]	8.28	6.08	–
COc1cnc(OCCOc2ncnc(NS(=O)(=O)/C=C/c3ccccc3)c2Oc2cc(OC)ccc2Cl)nc1 [Example 226]	7.81	5.81	–
COc1ccc(Cl)c(Oc2c(NS(=O)(=O)/C=C/c3ccccc3)nc(-c3ccncc3)nc2OCCOc2ncc(Br)cn2)c1 [Example 228]	7.84	5.41	–
COc1cccc(Oc2c(NS(=O)(=O)/C=C/c3ccccc3)ncnc2OCCOc2ncc(Br)cn2)c1 [Example 230]	7.91	6.03	–
COc1cccc(Oc2c(NS(=O)(=O)/C=C/c3ccccc3)ncnc2OCCOc2ncc(SC)cn2)c1 [Example 232]	8.00	6.54	–
